Each block holds one molecule with its values, some of them ahead of it.
What was measured:
[1] = tested on: OTC5 (DNA, aptamer) GACGACATTCCGTTGATCTCTCCCTTTTGGGTTGGTGTCGTC; experiment: ITC; details: 2 mM Mg2+; 10 mM Tris pH 8.3; 0.2 μM at pH 6.0 (10 mM MES)
[2] = tested on: OTC5 (DNA, aptamer) GACGACATTCCGTTGATCTCTCCCTTTTGGGTTGGTGTCGTC; experiment: intrinsic fluorescence enhancement titration; details: 50 mM NaCl, 2 mM MgCl2, 10 mM Tris HCl pH 8.3, binding lost without Mg2+

KD [1]: 30 nM
KD ([2]; 0.14 µM at acidic pH (printed 6.3)): 60 nM
SMILES: CN(C)[C@@H]1C(=O)C(C(N)=O)=C(O)[C@@]2(O)C(=O)C3=C(O)c4c(O)cccc4[C@@](C)(O)[C@H]3[C@H](O)[C@@H]12

KD ([2]; 0.36 µM at acidic pH (printed 6.3)): 160 nM
SMILES: CN(C)[C@@H]1C(=O)C(C(N)=O)=C(O)[C@@]2(O)C(=O)C3=C(O)c4c(O)cccc4[C@@](C)(O)[C@H]3C[C@@H]12

KD ([2]; 0.39 µM at pH 6.0): 240 nM
SMILES: C[C@H]1c2cccc(O)c2C(=O)C2=C(O)[C@]3(O)C(=O)C(C(N)=O)=C(O)[C@@H](N(C)C)[C@@H]3[C@@H](O)[C@@H]21
